# Laboratory results reported in PubChem BioAssay AID1963825 (Molecular Pharmacology Branch, DTP, NCI, 2024).
# Test: Anticancer human tumor 997537-175-T-J1-PDC patient-derived colon adenocarcinoma cell line growth inhibition [POLQ]
# Details: 997537-175-T-J1-PDC complex spheroid viability, combination with POLQ inhibitors; for IC50: curve of first compound; for viability, T/C: stronger effect = lower value
# Method: Multicellular complex tumor spheroid response to Polymerase (POL) inhibitors (novobiocin, ART-558, RP6685) in combination with a variety of drugs and investigational agents in selected tumor cell lines
# The POL inhibitors (novobiocin, ART-558, and RP6685) were evaluated both individually and in combination with standard of care and investigational anticancer small molecules within a complex spheroid model of solid tumors. . Complex spheroids include a stromal component modeled by human endothelial cells (HUVEC) and fibroblasts modeled by human mesenchymal stem cells (MSCs). The concentration ranges selected for each drug and investigational agent were based upon clinically achievable concentrations if the clinical Cmax of the agent was known.
# Compounds. The drugs and investigational agents: novobiocin (NSC847541), ART-558 (NSC835418), RP-6685 (NSC848927), peposertib (NSC802822), ceralasertib (NSC780249), elimusertib (NSC800525), camonsertib (NSC841442), AZD-1390 (NSC803789), olaparib (NSC753686), talazoparib (NSC767125), rucaparib (NSC756644), sotorasib (NSC818433), MRTX-1133 (NSC836407), SN-38 (NSC673596), topotecan (NSC609699), epotoside (NSC141540), doxorubicin (NSC123127), gemcitabine (NSC613327), 5-fluorouracil (NSC19893), paclitaxel (NSC125973), vemurafenib (NSC761431), MSA-2 (NSC828583), SN-011 (NSC837082), adavosertib (NSC754352), prexasertib (NSC758257), carboplatin (NSC241240) and oxaliplatin (NSC266046), were obtained from the National Cancer Institute (NCI) Developmental Therapeutics Program Chemical Repository (21). The FDA-approved anticancer drug set is available from the Developmental Therapeutics Program at https://dtp.cancer.gov/organization/dscb/obtaining/. […] The stock solutions were prepared in dimethyl sulfoxide (DMSO, Sigma-Aldrich, St. Louis, MO, cat. D2650), except for the platinum compounds which were prepared in saline (Quality Biological, Gaithersburg, MD, cat. 114-055-101), at 800-fold the tested concentration and stored at -70 degrees C prior to their use. All drugs and investigational agents were tested over a range starting from a high concentration at or near the clinical Cmax and decreasing in half-log increments. If the clinical Cmax for an agent had not been determined, the highest concentration tested was 10 microM, except for SN-38, which was tested at a high concentration of 1 microM.
# Cell Culture. All cells were maintained in an incubator at 37 degrees C and 5% CO2 with 95% humidity. The PDC lines were cultured according to standard operating procedures established by the NCI PDMR (https://pdmr.cancer.gov). Table 3 of the manuscript, lists the cell lines along with the number of the three cell types plated to form the mct-spheroids and media for tumor cell growth. After thawing, all PDC lines, except 997537-175-T-J1-PDC and 415267-285-R-J2-PDC, were cultured in Matrigel-coated flasks prepared with a working solution of 1X Ham's F-12 nutrient mix, without supplementation (Thermo Fisher Scientific, cat. 11765054), 100 U/mL penicillin-streptomycin (Thermo Fisher Scientific, cat. 15140122), and 2.5% Matrigel (Corning Inc., Corning, NY, cat. 354248) for the first three passages. The two PDC lines 997537-175-T-J1-PDC and 415267-285-R-J2-PDC were cultured on uncoated flasks. The 857933-349-R-J2-PDC line was cultured in 6C/Colon 1B media containing advanced DMEM/F-12 (Thermo Fisher Scientific, cat. 12634028), 10 mM HEPES (Thermo Fisher Scientific, cat. 15630080), 1X GlutaMAX supplement (Thermo Fisher Scientific, cat. 35050061), 0.1 mg/mL primocin (InvivoGen, San Diego, CA, cat. ant-pm-2), 10% defined fetal bovine serum, heat inactivated (HyClone Laboratories Inc., Logan, UT, cat. SH30070.03HI), 50% L-WRN conditioned media (ATCC, cat. CRL-3276), 1.25 mM N-Acetyl-L-cysteine (Sigma-Aldrich, cat. A9165), 10 mM nicotinamide (Sigma-Aldrich, cat. N0636), 1X B-27 supplement (Thermo Fisher Scientific, cat. 17504044), 1X N-2 supplement (Thermo Fisher Scientific, cat. […]
# [1] = second compound 0.0316 µM, first compound 0.0316 µM
# [2] = second compound 0.0316 µM, first compound 0.1 µM
# [3] = second compound 0.0316 µM, first compound 0.316 µM
# [4] = second compound 0.0316 µM, first compound 1 µM
# [5] = second compound 0.0316 µM, first compound 3.16 µM
# [6] = second compound 0.0316 µM, first compound 10 µM
# [7] = second compound 0.1 µM, first compound 0.0316 µM
# [8] = second compound 0.1 µM, first compound 0.1 µM
# [9] = second compound 0.1 µM, first compound 0.316 µM
# [10] = second compound 0.1 µM, first compound 1 µM
# [11] = second compound 0.1 µM, first compound 3.16 µM
# [12] = second compound 0.1 µM, first compound 10 µM
# [13] = second compound 0.316 µM, first compound 0.0316 µM
# [14] = second compound 0.316 µM, first compound 0.1 µM
# [15] = second compound 0.316 µM, first compound 0.316 µM
# [16] = second compound 0.316 µM, first compound 1 µM
# [17] = second compound 0.316 µM, first compound 3.16 µM
# [18] = second compound 0.316 µM, first compound 10 µM
# [19] = second compound 1 µM, first compound 0.0316 µM
# [20] = second compound 1 µM, first compound 0.1 µM
# [21] = second compound 1 µM, first compound 0.316 µM
# [22] = second compound 1 µM, first compound 1 µM
# [23] = second compound 1 µM, first compound 3.16 µM
# [24] = second compound 1 µM, first compound 10 µM
# [25] = second compound 3.16 µM, first compound 0.0316 µM
# [26] = second compound 3.16 µM, first compound 0.1 µM
# [27] = second compound 3.16 µM, first compound 0.316 µM
# [28] = second compound 3.16 µM, first compound 1 µM
# [29] = second compound 3.16 µM, first compound 3.16 µM
# [30] = second compound 3.16 µM, first compound 10 µM
# [31] = second compound 10 µM, first compound 0.0316 µM
# [32] = second compound 10 µM, first compound 0.1 µM
# [33] = second compound 10 µM, first compound 0.316 µM
# [34] = second compound 10 µM, first compound 1 µM
# [35] = second compound 10 µM, first compound 3.16 µM
# [36] = second compound 10 µM, first compound 10 µM
# 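Further: luminescence signal used as a surrogate for viable cells; spheroids exposed to drugs for seven days before readout.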
structure (smiles),measurement,setting,value
C#Cc1c(F)ccc2cc(O)cc(-c3ncc4c(N5CC6CCC(C5)N6)nc(OCC56CCCN5CC(F)C6)nc4c3F)c12 (centres undefined) + COC1C(OC(N)=O)C(O)C(Oc2ccc3c(O)c(NC(=O)c4ccc(O)c(CC=C(C)C)c4)c(=O)oc3c2C)OC1(C)C,IC50,second compound 0.0316 µM,> 10 µM
same,IC50,second compound 0.1 µM,> 10 µM
same,IC50,second compound 0.316 µM,> 10 µM
same,IC50,second compound 1 µM,> 10 µM
same,IC50,second compound 3.16 µM,> 10 µM
same,IC50,second compound 10 µM,> 10 µM
same,"viability, T/C",[1],98.8%
same,"viability, T/C",[2],111%
same,"viability, T/C",[3],103%
same,"viability, T/C",[4],108%
same,"viability, T/C",[5],112%
same,"viability, T/C",[6],107%
same,"viability, T/C",[7],119%
same,"viability, T/C",[8],104%
same,"viability, T/C",[9],105%
same,"viability, T/C",[10],99%
same,"viability, T/C",[11],123%
same,"viability, T/C",[12],103%
same,"viability, T/C",[13],108%
same,"viability, T/C",[14],116%
same,"viability, T/C",[15],97.9%
same,"viability, T/C",[16],104%
same,"viability, T/C",[17],101%
same,"viability, T/C",[18],98.4%
same,"viability, T/C",[19],107%
same,"viability, T/C",[20],121%
same,"viability, T/C",[21],94.9%
same,"viability, T/C",[22],95.9%
same,"viability, T/C",[23],111%
same,"viability, T/C",[24],97.9%
same,"viability, T/C",[25],108%
same,"viability, T/C",[26],112%
same,"viability, T/C",[27],84.1%
same,"viability, T/C",[28],104%
same,"viability, T/C",[29],119%
same,"viability, T/C",[30],95.8%
same,"viability, T/C",[31],101%
same,"viability, T/C",[32],108%
same,"viability, T/C",[33],109%
same,"viability, T/C",[34],106%
same,"viability, T/C",[35],110%
same,"viability, T/C",[36],97.1%
C=CC(=O)N1CCN(c2nc(=O)n(-c3c(C)ccnc3C(C)C)c3nc(-c4c(O)cccc4F)c(F)cc23)C(C)C1 (centres undefined) + COC1C(OC(N)=O)C(O)C(Oc2ccc3c(O)c(NC(=O)c4ccc(O)c(CC=C(C)C)c4)c(=O)oc3c2C)OC1(C)C,IC50,second compound 0.0316 µM,> 10 µM
same,IC50,second compound 0.1 µM,> 10 µM
same,IC50,second compound 0.316 µM,> 10 µM
same,IC50,second compound 1 µM,> 10 µM
same,IC50,second compound 3.16 µM,> 10 µM
same,IC50,second compound 10 µM,> 10 µM
same,"viability, T/C",[1],106%
same,"viability, T/C",[2],108%
same,"viability, T/C",[3],107%
same,"viability, T/C",[4],112%
same,"viability, T/C",[5],109%
same,"viability, T/C",[6],91.7%
same,"viability, T/C",[7],123%
same,"viability, T/C",[8],125%
same,"viability, T/C",[9],95.5%
same,"viability, T/C",[10],91.5%
same,"viability, T/C",[11],115%
same,"viability, T/C",[12],108%
same,"viability, T/C",[13],106%
same,"viability, T/C",[14],95.6%
same,"viability, T/C",[15],106%
same,"viability, T/C",[16],105%
same,"viability, T/C",[17],117%
same,"viability, T/C",[18],93.8%
same,"viability, T/C",[19],106%
same,"viability, T/C",[20],113%
same,"viability, T/C",[21],96.6%
same,"viability, T/C",[22],105%
same,"viability, T/C",[23],109%
same,"viability, T/C",[24],105%
same,"viability, T/C",[25],105%
same,"viability, T/C",[26],101%
same,"viability, T/C",[27],115%
same,"viability, T/C",[28],104%
same,"viability, T/C",[29],101%
same,"viability, T/C",[30],95.7%
same,"viability, T/C",[31],96.3%
same,"viability, T/C",[32],109%
same,"viability, T/C",[33],93%
same,"viability, T/C",[34],105%
same,"viability, T/C",[35],104%
same,"viability, T/C",[36],96.7%
